Patent US20040219201A1, “Tempamine compositions and methods of use” (priority 2001, published 2004)

Columns and labels:
[1] = n-octanol/water partition coefficient (Kp); type: physicochemical
Experimental: Free tempamine gives well-defined peaks in both solutions of n-octanol and water. The peak area (or height) is proportional to the tempamine concentrations in the aqueous phase and in n-octanol. The tempaamine concentration in both solvents was determined from a calibration curve of temparnine in each of the two solvents n-octanol and water.
A. Partition Coefficients The n-octanol/water partition coefficient, Kp, of tempamine was measured to estimate its phase distribution in the liposomes, according to the procedure previously described (Samuni, A. et al., Free-Radic Biol Med., 22:1165 (1997)). Partition coefficients were measured at various pH levels (pH 4.0, 7.0, and 10.6), at tempamine concentrations of 2.0 mM and 20.0 mM and at different concentrations of ammonium sulfate (20-400 mM). The volume of each phase was 1 ml.

[2] = Lipid bilayer/aqueous phase distribution (dialysis membrane); type: physicochemical; settings: no ammonium sulfate gradient
Experimental: In another study, the partition of tempamine between the lipid bilayer and the aqueous phase was determined. The lipid bilayer/aqueous phase distribution was performed using a dialysis membrane separating the phases in 0.15 M NaCl (Samuni, A., et al., Free Radic Biol Med., 22:1165 (1997)). There was no predisposition of tempamine for the lipid bilayer over the 0.15 M NaCl aqueous phase and the distribution of tempamine was equal between the liposome preparation (10% egg phosphatidylcholine (EPC) (w/v)) and 0.15 M NaCl (data not shown).

[3] = Percent encapsulation of tempamine in liposomes (EPR); type: physicochemical; settings: 0.2 mM TMN
Experimental: The amount of tempamine encapsulated in the liposomes was determined using EPR, as described in Example 3.
EPR spectrometry was employed to detect tempamine concentration using a JES-RE3X EPR spectrometer (JEOL Co., Japan) (Fuchs, J., et al., Free Radic. Biol. Med. 22:967-976, (1997)). Samples were drawn by a syringe into a gas-permeable Teflon capillary tube of 0.81 mm i.d. and 0.05 mm wall thickness (Zeus Industrial Products, Raritan, N.J., USA). The capillary tube was inserted into a 2.5-mm-i.d. quartz tube open at both ends, and placed in the EPR cavity. EPR spectra were recorded with center field set at 329 mT, 100 kHz modulation frequency, 0.1 mT modulation amplitude, and nonsaturating microwave power. […]
The amount of entrapped tempamine of liposomes prepared according to Example 2 was determined by the following procedure. First, the total tempamine in the post-loading liposome preparation (TMNmix) was measured. Then, the amount of tempamine in the post-loading liposome preparation in the presence of potassium ferricyanide, an EPR broadening agent that eliminates the signal of free (non-liposomal) tempamine, was measured. […] Then the total temparifine after releasing it from liposomes by nigericin (TMNnigencia) was measured. […]
The percent encapsulation and the quenching factor were calculated as follows: […]

[4] = type: in vivo; settings: free tempamine 1.8 mg/kg, four hours after injection, healthy and arthritic rats
Experimental: Studies using the AA model are described in Example 6. In this study, AA was induced in male rats by injection of microbacteria in Freund's ajuvavnt. Liposomes containing tempanine were prepared as described in Example 5A by remote loading tempamine against an ammonium sulfate gradient. The liposomes were administered by injection to healthy and arthritic rats 22 days after inducement of AA. At regular time intervals after administration of the liposomes, plasma and tissue samples were taken to determine the biodistribution and pharmacokinetics.
Adjuvent arthritis (AA) was induced by a single intradermal injection of mycobacteria in mineral oil (Freund's adjuvant). In strains of rats susceptible to adjuvant arthritis, the non-specific primary inflamnmation at the injection site was followed on about the 10th post-injection day by a disseminated polyarthritis or secondary specific inflammation. Lewis strain rats, which are highly susceptible to AA, were injected with 1 mg of Mycobacterium tuberculosis H37Ra (Difco, Detroit, Mich., USA) in Freund's complete adjuvant (FCA) (Difco), subcutaneously at the base of the tail. Maximum swelling of the paw occurred between 20 and 27 days
Adjuvent (maximum swelling). Tempamine was administered at a dose of 1.8 mg tempamine/kg (10.5 μmol/kg). The phospholipid concentration of the injected liposomes was 42 mg/kg (56 μmol/kg). […]

[5] = n-octanol/water partition coefficient (Kp); type: physicochemical; settings: ammonium sulfate 0 mM; TMN 20 μmole
[6] = ammonium sulfate 20 mM, TMN 2 μmole
[7] = ammonium sulfate 20 mM, TMN 20 μmole
[8] = ammonium sulfate 150 mM, TMN 2 μmole
[9] = ammonium sulfate 150 mM, TMN 20 μmole
[10] = ammonium sulfate 400 mM, TMN 2 μmole
[11] = ammonium sulfate 400 mM, TMN 20 μmole

In the case of `CC1(C)CC(N)CC(C)(C)N1[O]` [tempamine, 2,2,6,6-tetramethylpiperidine-4-amino-1-oxyl], the “n-octanol/aqueous phase (Kp), pH 7” value ([1]; ammonium sulfate 0 mM, TMN 20 μmole) is reported as 0.278, the “n-octanol/aqueous phase (Kp), pH 4” value [1, 6] is reported as 0.031 and the “n-octanol/aqueous phase (Kp), pH 7” value [1, 6] is reported as 0.048. The “n-octanol/aqueous phase (Kp), pH 10.6” value [1, 6] was 2.418, the “n-octanol/aqueous phase (Kp), pH 4” value [1, 7] was 0.074 and the “n-octanol/aqueous phase (Kp), pH 7” value [1, 7] was 0.116. The “n-octanol/aqueous phase (Kp), pH 10.6” value [1, 7] was 2.386, the “n-octanol/aqueous phase (Kp), pH 4” value [1, 8] was 0.024 and the “n-octanol/aqueous phase (Kp), pH 7” value [1, 8] was 0.055. For the same compound, the “n-octanol/aqueous phase (Kp), pH 10.6” value [1, 8] was 2.184, the “n-octanol/aqueous phase (Kp), pH 4” value [1, 9] was 0.049 and the “n-octanol/aqueous phase (Kp), pH 7” value [1, 9] was 0.038. The “n-octanol/aqueous phase (Kp), pH 10.6” value [1, 9] was 3.969, the “n-octanol/aqueous phase (Kp), pH 4” value [1, 10] was 0.028 and the “n-octanol/aqueous phase (Kp), pH 7” value [1, 10] was 0.040. The “n-octanol/aqueous phase (Kp), pH 10.6” value [1, 10] was 3.005, the “n-octanol/aqueous phase (Kp), pH 4” value [1, 11] was 0.046 and the “n-octanol/aqueous phase (Kp), pH 7” value [1, 11] was 0.034. For the same compound, the “n-octanol/aqueous phase (Kp), pH 10.6” value [1, 11] was 4.569, the “distribution between liposome preparation (10% EPC w/v) and 0.15 M NaCl” value [2] was “equal” and the “% Encapsulation ± S.D.” value ([3]; liposomes with NH4+ gradient) was 84.1 ± 8.4^3%. The “% Encapsulation ± S.D.” value ([3]; liposomes without NH4+ gradient) was 6 ± 0.6%, the “amount of tempamine in plasma and in the tested tissues (detection limit)” value [4] was < 0.5 µM and the “n-octanol/aqueous phase (Kp), pH 4” value [5] was 0.111. For the same compound, the “n-octanol/aqueous phase (Kp), pH 10.6” value [5] was 2.331.
